# From ChEMBL document CHEMBL1134172, “Bicyclic nucleoside inhibitors of Varicella-Zoster Virus (VZV): the effect of terminal unsaturation in the side chain” (Bioorg Med Chem Lett, 2001)
# What was measured:
# [1] = system: HEL; assay: Cytotoxic concentration required to inhibit HEL cell growth by 50 %; format: functional; settings: Homo sapiens
# [2] = system: HEL; assay: Minimum cytotoxic concentration required to alter microscopically detectable HEL cell morphology; format: functional; settings: Homo sapiens
# [3] = system: Human alphaherpesvirus 3; assay: Effective concentration required for reduction of plaque formation of thymidine kinase deficient Varicella-Zoster Virus (071 strain); format: functional, organism-based
# [4] = system: Human alphaherpesvirus 3; assay: Effective concentration required for reduction of plaque formation of Varicella-Zoster Virus, (YS strain); format: functional, organism-based
# [5] = system: Human alphaherpesvirus 3; assay: Effective concentration required for reduction of plaque formation of Varicella-Zoster Virus (OKA strain); format: functional, organism-based
# [6] = system: Human alphaherpesvirus 3; assay: Effective concentration required for reduction of plaque formation of thymidine kinase deficient Varicella-Zoster Virus (YSR strain); format: functional, organism-based
SMILES,EC50 [3],EC50 [4],EC50 [5],EC50 [6],CC50 [1],MCC [2]
CCCCCCCCCCc1cc2cn([C@H]3C[C@H](O)[C@@H](CO)O3)c(=O)nc2o1,,,,,> 50 µM,
CCCCCCCCc1cc2cn([C@H]3C[C@H](O)[C@@H](CO)O3)c(=O)nc2o1,,,,,> 50 µM,
CCCCCCc1cc2cn([C@H]3C[C@H](O)[C@@H](CO)O3)c(=O)nc2o1,,,,,> 200 µM,> 50 µM
CCCCCCCc1cc2cn([C@H]3C[C@H](O)[C@@H](CO)O3)c(=O)nc2o1,,,,,> 50 µM,
CCCCCc1cc2cn([C@H]3C[C@H](O)[C@@H](CO)O3)c(=O)nc2o1,,,,,> 50 µM,
Nc1nc2c(ncn2COCCO)c(=O)[nH]1 [ACYCLOVIR],> 4 µM,,,,> 200 µM,

# Further lines, with some results ahead:
EC50 [3],EC50 [4],EC50 [5],EC50 [6],SMILES,CC50 [1],MCC [2]
> 200 µM,4 µM,5 µM,> 200 µM,C#CCCCCCCc1cc2cn([C@H]3C[C@H](O)[C@@H](CO)O3)c(=O)nc2o1,> 200 µM,> 200 µM
> 200 µM,37 µM,79 µM,> 200 µM,C#CCCCCCc1cc2cn([C@H]3C[C@H](O)[C@@H](CO)O3)c(=O)nc2o1,> 200 µM,> 200 µM
> 200 µM,13 µM,14 µM,> 200 µM,C=CCCCCc1cc2cn([C@H]3C[C@H](O)[C@@H](CO)O3)c(=O)nc2o1,> 200 µM,> 200 µM
> 200 µM,0.06 µM,0.27 µM,> 50 µM,C=CCCCCCCc1cc2cn([C@H]3C[C@H](O)[C@@H](CO)O3)c(=O)nc2o1,> 200 µM,> 200 µM
> 200 µM,> 200 µM,> 200 µM,> 200 µM,C=CCCCc1cc2cn([C@H]3C[C@H](O)[C@@H](CO)O3)c(=O)nc2o1,> 200 µM,> 200 µM
> 200 µM,0.1 µM,0.09 µM,> 200 µM,C=CCCCCCCCCc1cc2cn([C@H]3C[C@H](O)[C@@H](CO)O3)c(=O)nc2o1,> 200 µM,> 50 µM
> 200 µM,10 µM,8 µM,> 200 µM,C#CCCCc1cc2cn([C@H]3C[C@H](O)[C@@H](CO)O3)c(=O)nc2o1,> 200 µM,> 200 µM
> 200 µM,33 µM,25 µM,> 200 µM,C#CCCCCc1cc2cn([C@H]3C[C@H](O)[C@@H](CO)O3)c(=O)nc2o1,> 200 µM,> 200 µM
